Data on 23 compounds can be found in patent US9290478B2, “Substituted quinoxalines as FGFR kinase inhibitors” (ASTEX THERAPEUTICS LTD, priority 2010, dated 2016).

The target in one test is FGFR3 (h) (Homo sapiens, UniProt P22607). Kind of test: FGFR3 (enzymatic assay), TR-FRET. In kind it is biochemical. Conditions: 25 μM ATP; read-out: FGFR3 pIC50 (converted). The method, then:
(§1) In a final reaction volume of 30 μL, FGFR3 (h) (40 ng/ml) was incubated with 50 mM HEPES pH 7.5, 6 mM MnCl2, 1 mM DTT, 0.1 mM Na3VO4, 0.01% Triton-X-100, 500 nM Btn-Flt3 and 25 μM ATP in the presence of compound (1% DMSO final). After incubation for 60 minutes at room temperature the reaction was stopped with 2.27 nM EU-anti P-Tyr, 7 mM EDTA, 31.25 nM SA-XL-665 and 0.02% BSA which was present for 60 minutes at room temperature. Time-Resolved Fluorescence Resonance Energy Transfer (TR-FRET) signal (ex340 nm. Em 620 nm, em 655 nm) was measured afterwards and results are expressed in RFU (Relative Fluorescence Units). In this assay, the inhibitory effect of different compound concentrations (range 10 μM to 0.1 nM) was determined and used to calculate an IC50 (M) and pIC50 (−log IC50) value.

For the next test, the target named is FGFR4 (h) (Homo sapiens, UniProt P22455). Kind of test: FGFR4 (enzymatic assay), TR-FRET. Conditions: 5 μM ATP; for IC50: read-out: FGFR4 pIC50 (converted). In kind it is biochemical. The protocol: as §1, with “μL, FGFR4” for “μL, FGFR3”, “(h) (60” for “(h) (40”, “and 5” for “and 25”
Another test has as its target KDR (h) (VEGFR2) (Homo sapiens, UniProt P35968). Kind of test: KDR (VEGFR2) (enzymatic assay), TR-FRET. In kind it is biochemical. Conditions: 3 μM ATP; for IC50: read-out: VEGFR2 (KDR) pIC50 (converted). The method, then:
KDR (VEGFR2) (Enzymatic Assay)
as §1, with “30 μL, KDR (h) (150” for “30 μL, FGFR3 (h) (40”, “KDR (h) (150 ng/ml) was” for “FGFR3 (h) (40 ng/ml) was”, “Btn-Flt3 and 3 μM ATP” for “Btn-Flt3 and 25 μM ATP”, “incubation for 120 minutes at” for “incubation for 60 minutes at”
Background: In TR-FRET formats the signal depends on donor and acceptor labels being close together.

The subject of test [1] is Ba/F3-Flt3-transfected cells. Kind of test: Ba/F3-Flt3 (minus IL3 or plus IL3) cellular proliferation assay. The conditions noted are these: plus 10 ng/ml murine IL3 (counterscreen); for IC50: 24 h, read-out: BAF3_FLT3 (PLUS IL3) pIC50 (converted). In kind it is cell-based. The protocol:
Ba/F3-Flt3 (Minus IL3 or Plus IL3) (Cellular Proliferation Assay)
In a 384 well plate, 100 nl of compound dilution in DMSO was sprayed before adding 50 μl cell culture medium (phenol red free RPMI-1640, 10% FBS, 2 mM L-Glutamine and 50 μg/ml Gentamycin) containing 20000 cells per well of Ba/F3-Flt3-transfected cells. Cells were put in an incubator at 37° C. and 5% CO2. After 24 hours, 10 μl of Alamar Blue solution (0.5 mM K3Fe(CN)6, 0.5 mM K4Fe(CN)6, 0.15 mM Resazurin and 100 mM Phosphate Buffer) was added to the wells, incubated for 4 hours at 37° C. and 5% CO2 before RFU's (Relative Fluorescence Units) (ex. 540 nm., em. 590 nm.) were measured in a fluororescence plate reader.
In this assay, the inhibitory effect of different compound concentrations (range 10 μM to 0.1 nM) was determined and used to calculate an IC50 (M) and pIC50 (−log IC50) value.
As a counterscreen the same experiment was performed in the presence of 10 ng/ml murine IL3.

Chain of KDR (h) (VEGFR2) (P35968 20-1356): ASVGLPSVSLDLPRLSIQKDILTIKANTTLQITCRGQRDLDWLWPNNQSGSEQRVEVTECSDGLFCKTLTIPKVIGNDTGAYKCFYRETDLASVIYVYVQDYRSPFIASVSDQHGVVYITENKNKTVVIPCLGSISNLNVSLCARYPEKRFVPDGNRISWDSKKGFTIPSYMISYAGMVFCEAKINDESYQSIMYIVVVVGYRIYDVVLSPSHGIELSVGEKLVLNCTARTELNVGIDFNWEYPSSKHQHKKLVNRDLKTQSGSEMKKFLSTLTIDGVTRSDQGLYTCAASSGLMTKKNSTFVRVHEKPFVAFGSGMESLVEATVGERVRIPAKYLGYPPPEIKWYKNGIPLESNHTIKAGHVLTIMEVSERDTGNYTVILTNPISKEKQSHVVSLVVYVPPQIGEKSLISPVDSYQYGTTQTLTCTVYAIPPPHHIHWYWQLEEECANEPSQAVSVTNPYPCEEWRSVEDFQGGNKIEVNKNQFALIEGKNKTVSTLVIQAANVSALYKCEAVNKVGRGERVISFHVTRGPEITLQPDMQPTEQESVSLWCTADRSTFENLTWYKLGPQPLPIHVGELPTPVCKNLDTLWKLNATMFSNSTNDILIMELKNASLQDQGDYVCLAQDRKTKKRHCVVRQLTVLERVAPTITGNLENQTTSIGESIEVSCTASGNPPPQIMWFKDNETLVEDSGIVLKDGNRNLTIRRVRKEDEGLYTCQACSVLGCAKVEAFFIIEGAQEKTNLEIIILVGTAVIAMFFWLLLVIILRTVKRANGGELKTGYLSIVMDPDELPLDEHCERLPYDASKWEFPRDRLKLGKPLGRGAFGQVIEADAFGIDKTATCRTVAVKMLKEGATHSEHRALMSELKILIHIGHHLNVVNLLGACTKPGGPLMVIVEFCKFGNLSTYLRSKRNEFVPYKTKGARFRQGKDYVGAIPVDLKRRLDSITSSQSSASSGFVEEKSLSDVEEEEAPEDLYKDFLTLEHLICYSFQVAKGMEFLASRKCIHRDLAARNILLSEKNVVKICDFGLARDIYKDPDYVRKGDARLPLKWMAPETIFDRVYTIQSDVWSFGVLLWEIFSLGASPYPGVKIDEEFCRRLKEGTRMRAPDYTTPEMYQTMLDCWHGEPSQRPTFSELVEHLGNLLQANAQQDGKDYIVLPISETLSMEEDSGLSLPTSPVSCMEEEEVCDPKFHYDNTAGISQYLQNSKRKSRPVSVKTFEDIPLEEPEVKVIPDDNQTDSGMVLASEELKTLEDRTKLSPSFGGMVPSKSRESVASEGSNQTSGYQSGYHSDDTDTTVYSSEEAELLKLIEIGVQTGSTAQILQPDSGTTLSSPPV
Chain of FGFR3 (h) (P22607 23-806): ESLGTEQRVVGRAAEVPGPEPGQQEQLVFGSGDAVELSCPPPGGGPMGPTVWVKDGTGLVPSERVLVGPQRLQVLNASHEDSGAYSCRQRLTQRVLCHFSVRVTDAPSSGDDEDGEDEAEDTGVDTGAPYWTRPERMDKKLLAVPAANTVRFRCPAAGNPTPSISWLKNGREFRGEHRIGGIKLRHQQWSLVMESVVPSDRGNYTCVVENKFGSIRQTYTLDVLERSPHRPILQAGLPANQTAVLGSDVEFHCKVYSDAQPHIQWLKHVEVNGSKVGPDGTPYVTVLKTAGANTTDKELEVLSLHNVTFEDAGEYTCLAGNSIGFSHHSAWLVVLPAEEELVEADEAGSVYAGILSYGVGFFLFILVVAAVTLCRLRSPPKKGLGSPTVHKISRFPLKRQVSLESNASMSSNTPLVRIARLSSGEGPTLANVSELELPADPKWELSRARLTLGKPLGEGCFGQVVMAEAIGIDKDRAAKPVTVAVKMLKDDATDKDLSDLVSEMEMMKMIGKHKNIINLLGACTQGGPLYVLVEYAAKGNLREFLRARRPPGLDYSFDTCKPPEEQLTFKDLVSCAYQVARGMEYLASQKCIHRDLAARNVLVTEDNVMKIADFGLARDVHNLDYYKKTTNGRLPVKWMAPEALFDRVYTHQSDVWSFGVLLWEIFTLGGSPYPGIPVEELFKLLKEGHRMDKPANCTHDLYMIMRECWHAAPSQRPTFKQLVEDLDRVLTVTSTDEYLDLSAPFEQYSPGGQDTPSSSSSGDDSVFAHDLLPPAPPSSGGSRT
Chain of FGFR4 (h) (P22455 22-802): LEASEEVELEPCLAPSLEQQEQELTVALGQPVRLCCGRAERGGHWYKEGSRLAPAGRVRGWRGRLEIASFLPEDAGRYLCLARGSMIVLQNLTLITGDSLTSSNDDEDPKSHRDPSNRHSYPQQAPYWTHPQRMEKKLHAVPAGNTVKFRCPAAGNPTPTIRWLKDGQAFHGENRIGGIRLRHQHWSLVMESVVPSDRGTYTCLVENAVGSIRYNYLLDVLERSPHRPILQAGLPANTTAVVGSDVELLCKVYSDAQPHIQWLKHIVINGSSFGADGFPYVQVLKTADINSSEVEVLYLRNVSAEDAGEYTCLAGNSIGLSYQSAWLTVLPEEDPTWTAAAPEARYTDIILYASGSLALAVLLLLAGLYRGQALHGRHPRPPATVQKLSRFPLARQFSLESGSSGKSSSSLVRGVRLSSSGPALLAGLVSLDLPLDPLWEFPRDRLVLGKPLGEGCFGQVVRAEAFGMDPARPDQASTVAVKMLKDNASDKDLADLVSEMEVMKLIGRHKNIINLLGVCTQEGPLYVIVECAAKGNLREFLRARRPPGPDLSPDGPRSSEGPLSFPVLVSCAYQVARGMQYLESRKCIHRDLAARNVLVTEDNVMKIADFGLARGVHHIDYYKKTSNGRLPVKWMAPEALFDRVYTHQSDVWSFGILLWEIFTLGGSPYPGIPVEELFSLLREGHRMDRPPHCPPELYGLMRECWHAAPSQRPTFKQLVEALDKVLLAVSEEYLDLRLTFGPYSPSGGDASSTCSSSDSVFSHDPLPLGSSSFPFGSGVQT

With `COc1cc(OC)cc(C(CC#N)c2ccc3ncc(-c4cnn(C)c4)nc3c2)c1` (centres unmarked) [Compound 18], the IC50 on FGFR3 (h) is 43.7 nM; at FGFR4 (h), 182 nM; at KDR (h) (VEGFR2), above 1000 nM; in test [1], above 10000 nM.

`COc1cc(OC)cc(C(NCCNC(C)C)c2ccc3ncc(-c4cnn(C)c4)nc3c2)c1.Cl` (single isomer, unassigned) [Compound 39]: the IC50 at FGFR3 (h) was above 1000 nM. Further, the “FGFR4 pIC50” value on FGFR4 (h) is below 6. In addition, on KDR (h) (VEGFR2), the “VEGFR2 (KDR) pIC50” value is on record as below 6. Besides, the “BAF3_FLT3 (PLUS IL3) pIC50” value in test [1] is listed as below 5.

As to `COc1cc(OC)cc(/C(=C/CNC(C)C)c2ccc3ncc(-c4cnn(C)c4)nc3c2)c1` [Compound 9], the IC50 on FGFR3 (h) was 123 nM; at FGFR4 (h), 1480 nM; on KDR (h) (VEGFR2) it was 4470 nM; in test [1], above 10000 nM.

Turning to `COc1cc(OC)cc(C(CCN)c2ccc3ncc(-c4cnn(C)c4)nc3c2)c1.Cl` (centres unmarked) [Compound 20], the IC50 on FGFR3 (h) is 61.7 nM; at FGFR4 (h), 447 nM; on KDR (h) (VEGFR2) it was 4680 nM; in test [1], above 10000 nM.

As for `COc1cc(OC)cc(C(CC(=O)NC(C)C)c2ccc3ncc(-c4cnn(C)c4)nc3c2)c1` (centres unmarked) [Compound 23], the IC50 on FGFR3 (h) is above 1000 nM; at FGFR4 (h) it was above 1000 nM; at KDR (h) (VEGFR2) it was above 1000 nM; in test [1], above 10000 nM.

With `COc1cc(OC)cc(C(=O)c2ccc3ncc(-c4cnn(C)c4)nc3c2)c1` [Compound 2], the IC50 was 66.1 nM on FGFR3 (h), around 10000 nM on FGFR4 (h), 708 nM on KDR (h) (VEGFR2) and above 10000 nM in test [1].

As to `COc1cc(OC)cc(C(O)(CNCCNC(C)C)c2ccc3ncc(-c4cnn(C)c4)nc3c2)c1` (single isomer, unassigned) [Compound 5], the IC50 on FGFR3 (h) is 575 nM; at FGFR4 (h), above 1000 nM; on KDR (h) (VEGFR2) it was above 1000 nM; in test [1], above 10000 nM.

In the case of `COc1cc(OC)cc(/C(=C\CN(C)C)c2ccc3ncc(-c4cnn(C)c4)nc3c2)c1` [Compound 10, {(Z)-3-(3,5-Dimethoxy-phenyl)-3-[3-(1-methyl-1H-pyrazol-4-yl)-quinoxalin-6-yl]-allyl}-dimethyl-amine], the IC50 at FGFR3 (h) was 9.12 nM; on FGFR4 (h) it was 107 nM; at KDR (h) (VEGFR2) it was above 1000 nM; in test [1] it was above 10000 nM.

In the case of `COc1cc(OC)cc(C(CCN2CCCC2=O)c2ccc3ncc(-c4cnn(C)c4)nc3c2)c1.Cl` (centres unmarked) [Compound 7], the IC50 at FGFR3 (h) is around 12.6 nM; on FGFR4 (h), 158 nM; at KDR (h) (VEGFR2), 347 nM; in test [1], above 10000 nM.

`COc1cc(OC)cc(C(CCNC(C)C)c2ccc3ncc(-c4cnn(C)c4)nc3c2)c1` (single isomer, unassigned) [Compound 32a]: the IC50 was around 912 nM on FGFR3 (h), 5500 nM at FGFR4 (h) and above 10000 nM on KDR (h) (VEGFR2). Further, the “BAF3_FLT3 (PLUS IL3) pIC50” value in test [1] is given as below 5.

For `CN(C)CCC(c1ccccc1)c1ccc2ncc(-c3cnn(C)c3)nc2c1` (centres unmarked) [Compound 35], the IC50 on FGFR3 (h) is above 1000 nM; on FGFR4 (h) it was above 1000 nM; on KDR (h) (VEGFR2) it was above 1000 nM; in test [1], above 10000 nM.

Consider `COc1cc(OC)cc(C(CCNCC(F)(F)F)c2ccc3ncc(-c4cnn(C)c4)nc3c2)c1.Cl` (centres unmarked) [Compound 33], for which the IC50 on FGFR3 (h) was 138 nM; on FGFR4 (h), around 1000 nM; at KDR (h) (VEGFR2) it was above 1000 nM; in test [1], above 10000 nM.

Consider `COc1cc(OC)cc(/C(=C\CNC(C)C)c2ccc3ncc(-c4cnn(C)c4)nc3c2)c1` [Compound 8, {(Z)-3-(3,5-Dimethoxy-phenyl)-3-[3-(1-methyl-1H-pyrazol-4-yl)-quinoxalin-6-yl]-allyl}-isopropyl-amine], for which the IC50 is 8.71 nM at FGFR3 (h), 126 nM on FGFR4 (h), 389 nM on KDR (h) (VEGFR2) and around 8710 nM in test [1].

For `COc1cc(OC)cc(C(O)(CNCCNC(C)C)c2ccc3ncc(-c4cnn(C)c4)nc3c2)c1` (single isomer, unassigned) [Compound 6], the IC50 at FGFR3 (h) is 676 nM.

Take `CNCC(O)(c1cc(OC)cc(OC)c1)c1ccc2ncc(-c3cnn(C)c3)nc2c1.Cl` (single isomer, unassigned) [Compound 38]: at FGFR3 (h), the IC50 was above 1000 nM. For the same compound, the “FGFR4 pIC50” value at FGFR4 (h) is on record as below 6. Also, the “VEGFR2 (KDR) pIC50” value on KDR (h) (VEGFR2) was below 6. In addition, in test [1], the “BAF3_FLT3 (PLUS IL3) pIC50” value is below 5.

Regarding `COc1cc(OC)cc(C(CCO)c2ccc3ncc(-c4cnn(C)c4)nc3c2)c1` (centres unmarked) [Compound 22], the IC50 at FGFR3 (h) was 51.3 nM; on FGFR4 (h), 513 nM; on KDR (h) (VEGFR2), above 1000 nM; in test [1], above 10000 nM.

On to `COc1cc(OC)cc(C(CC(C)(O)CNC(C)C)c2ccc3ncc(-c4cnn(C)c4)nc3c2)c1.Cl` (centres unmarked) [Compound 25], for which the IC50 on FGFR3 (h) is 708 nM; on FGFR4 (h), above 1000 nM; at KDR (h) (VEGFR2), 562 nM; in test [1], above 10000 nM.

Regarding `COc1cc(OC)cc(C(CCNC(C)C)c2ccc3ncc(-c4cnn(C)c4)nc3c2)c1.Cl` (centres unmarked) [Compound 29, {3-(3,5-Dimethoxy-phenyl)-3-[3-(1-methyl-1H-pyrazol-4-yl)-quinoxalin-6-yl]-propyl}-isopropyl-amine], the IC50 was 35.5 nM on FGFR3 (h), 275 nM on FGFR4 (h), above 1000 nM at KDR (h) (VEGFR2) and above 10000 nM in test [1].

Regarding `COc1cc(OC)cc(C(NCCNC(C)C)c2ccc3ncc(-c4cnn(C)c4)nc3c2)c1.Cl` (single isomer, unassigned) [Compound 24], the IC50 at FGFR3 (h) was 257 nM; at FGFR4 (h) it was above 1000 nM; at KDR (h) (VEGFR2), above 1000 nM; in test [1] it was above 10000 nM.

For the compound `Cn1cc(-c2cnc3ccc(C(O)c4ccccc4)cc3n2)cn1` (centres unmarked) [Compound 28], the IC50 on FGFR3 (h) is 3720 nM; at FGFR4 (h), 8510 nM; at KDR (h) (VEGFR2), 1580 nM; in test [1], above 10000 nM.

For the compound `COc1cc(OC)cc(C2(c3ccc4ncc(-c5cnn(C)c5)nc4c3)CC2)c1` [Compound 30], the IC50 was 43.7 nM at FGFR3 (h), 479 nM on FGFR4 (h), 501 nM on KDR (h) (VEGFR2) and above 10000 nM in test [1].

Turning to `COc1cc(OC)cc(C(CCN(C)C)c2ccc3ncc(-c4cnn(C)c4)nc3c2)c1.Cl` (centres unmarked) [Compound 21], the IC50 at FGFR3 (h) is 67.6 nM; on FGFR4 (h), 355 nM; at KDR (h) (VEGFR2), above 1000 nM; in test [1], above 10000 nM.

As to `COc1cc(OC)cc(C(CCCN)c2ccc3ncc(-c4cnn(C)c4)nc3c2)c1.Cl` (centres unmarked) [Compound 40], the IC50 at FGFR3 (h) was 269 nM; at FGFR4 (h), above 1000 nM; on KDR (h) (VEGFR2), above 1000 nM; in test [1], above 10000 nM.
